According to paper PMC4076210, “Discovery of Novel AKT Inhibitors with Enhanced Anti-Tumor Effects in Combination with the MEK Inhibitor” (PLoS ONE, 2014):
Where two headings read alike, the source gives them in different places.

What was measured:
Test in all cases: Kinase panel
Assay type in all cases: biochemical
[1] = biological target: T1, TAO3(h) (Homo sapiens, UniProt Q9H2K8)
T1 construct: purchased Millipore KinaseProfiler
T1 sequence (Q9H2K8 1-898): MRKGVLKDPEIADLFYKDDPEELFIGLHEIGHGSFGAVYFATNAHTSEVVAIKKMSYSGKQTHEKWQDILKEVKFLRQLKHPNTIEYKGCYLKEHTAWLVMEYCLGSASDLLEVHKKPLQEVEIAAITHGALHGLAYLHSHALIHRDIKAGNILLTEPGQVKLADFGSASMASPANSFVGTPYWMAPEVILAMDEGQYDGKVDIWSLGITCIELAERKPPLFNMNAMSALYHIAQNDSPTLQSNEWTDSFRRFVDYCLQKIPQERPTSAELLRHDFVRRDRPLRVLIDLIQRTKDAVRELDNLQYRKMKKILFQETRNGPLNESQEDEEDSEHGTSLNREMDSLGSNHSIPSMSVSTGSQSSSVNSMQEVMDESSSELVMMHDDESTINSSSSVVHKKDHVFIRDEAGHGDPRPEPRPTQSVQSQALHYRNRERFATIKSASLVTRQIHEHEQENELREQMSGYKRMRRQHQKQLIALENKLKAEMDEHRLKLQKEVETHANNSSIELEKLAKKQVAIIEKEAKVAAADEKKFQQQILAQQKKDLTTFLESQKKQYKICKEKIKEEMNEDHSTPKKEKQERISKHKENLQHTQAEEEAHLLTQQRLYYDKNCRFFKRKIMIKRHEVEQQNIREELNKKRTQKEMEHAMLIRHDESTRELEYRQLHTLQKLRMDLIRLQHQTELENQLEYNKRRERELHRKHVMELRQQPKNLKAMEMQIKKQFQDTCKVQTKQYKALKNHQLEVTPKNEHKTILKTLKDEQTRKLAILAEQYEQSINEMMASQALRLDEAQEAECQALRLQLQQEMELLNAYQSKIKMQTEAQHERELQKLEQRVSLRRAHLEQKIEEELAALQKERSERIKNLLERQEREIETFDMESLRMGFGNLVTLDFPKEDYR

[2] = biological target: T2, IRAK4(h) (Homo sapiens, UniProt Q9NWZ3)
T2 construct: purchased Millipore KinaseProfiler
T2 sequence (Q9NWZ3 1-460): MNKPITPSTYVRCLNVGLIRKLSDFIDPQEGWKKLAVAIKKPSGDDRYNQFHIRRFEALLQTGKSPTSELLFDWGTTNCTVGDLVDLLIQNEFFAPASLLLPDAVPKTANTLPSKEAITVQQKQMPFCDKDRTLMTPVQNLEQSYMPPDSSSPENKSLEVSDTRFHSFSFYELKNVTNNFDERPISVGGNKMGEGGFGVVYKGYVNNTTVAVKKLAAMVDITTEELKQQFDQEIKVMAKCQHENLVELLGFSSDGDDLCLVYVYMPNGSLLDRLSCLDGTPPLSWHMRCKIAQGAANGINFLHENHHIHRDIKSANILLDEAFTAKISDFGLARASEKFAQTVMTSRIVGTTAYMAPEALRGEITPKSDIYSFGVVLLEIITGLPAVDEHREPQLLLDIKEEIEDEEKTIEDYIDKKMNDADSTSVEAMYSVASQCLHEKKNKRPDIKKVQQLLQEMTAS

[3] = biological target: T3, RIPK2(h) (Homo sapiens, UniProt O43353)
T3 construct: purchased Millipore KinaseProfiler
T3 sequence (O43353 whole entry): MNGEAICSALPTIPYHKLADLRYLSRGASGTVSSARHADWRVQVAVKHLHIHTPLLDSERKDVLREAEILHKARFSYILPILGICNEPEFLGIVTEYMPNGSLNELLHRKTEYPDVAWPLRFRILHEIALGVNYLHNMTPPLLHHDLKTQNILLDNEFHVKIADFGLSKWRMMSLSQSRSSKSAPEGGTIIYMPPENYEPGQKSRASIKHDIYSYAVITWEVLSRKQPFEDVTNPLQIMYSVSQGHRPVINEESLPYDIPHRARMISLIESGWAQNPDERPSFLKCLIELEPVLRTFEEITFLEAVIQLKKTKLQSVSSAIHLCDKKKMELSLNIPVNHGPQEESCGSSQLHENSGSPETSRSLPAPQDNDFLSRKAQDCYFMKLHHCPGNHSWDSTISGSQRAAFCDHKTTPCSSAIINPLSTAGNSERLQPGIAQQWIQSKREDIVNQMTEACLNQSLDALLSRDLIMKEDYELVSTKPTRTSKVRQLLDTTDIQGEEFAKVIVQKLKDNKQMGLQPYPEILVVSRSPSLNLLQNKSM

[4] = biological target: T4, JAK3(h) (Homo sapiens, UniProt P52333)
T4 construct: purchased Millipore KinaseProfiler
T4 sequence (P52333 1-1124): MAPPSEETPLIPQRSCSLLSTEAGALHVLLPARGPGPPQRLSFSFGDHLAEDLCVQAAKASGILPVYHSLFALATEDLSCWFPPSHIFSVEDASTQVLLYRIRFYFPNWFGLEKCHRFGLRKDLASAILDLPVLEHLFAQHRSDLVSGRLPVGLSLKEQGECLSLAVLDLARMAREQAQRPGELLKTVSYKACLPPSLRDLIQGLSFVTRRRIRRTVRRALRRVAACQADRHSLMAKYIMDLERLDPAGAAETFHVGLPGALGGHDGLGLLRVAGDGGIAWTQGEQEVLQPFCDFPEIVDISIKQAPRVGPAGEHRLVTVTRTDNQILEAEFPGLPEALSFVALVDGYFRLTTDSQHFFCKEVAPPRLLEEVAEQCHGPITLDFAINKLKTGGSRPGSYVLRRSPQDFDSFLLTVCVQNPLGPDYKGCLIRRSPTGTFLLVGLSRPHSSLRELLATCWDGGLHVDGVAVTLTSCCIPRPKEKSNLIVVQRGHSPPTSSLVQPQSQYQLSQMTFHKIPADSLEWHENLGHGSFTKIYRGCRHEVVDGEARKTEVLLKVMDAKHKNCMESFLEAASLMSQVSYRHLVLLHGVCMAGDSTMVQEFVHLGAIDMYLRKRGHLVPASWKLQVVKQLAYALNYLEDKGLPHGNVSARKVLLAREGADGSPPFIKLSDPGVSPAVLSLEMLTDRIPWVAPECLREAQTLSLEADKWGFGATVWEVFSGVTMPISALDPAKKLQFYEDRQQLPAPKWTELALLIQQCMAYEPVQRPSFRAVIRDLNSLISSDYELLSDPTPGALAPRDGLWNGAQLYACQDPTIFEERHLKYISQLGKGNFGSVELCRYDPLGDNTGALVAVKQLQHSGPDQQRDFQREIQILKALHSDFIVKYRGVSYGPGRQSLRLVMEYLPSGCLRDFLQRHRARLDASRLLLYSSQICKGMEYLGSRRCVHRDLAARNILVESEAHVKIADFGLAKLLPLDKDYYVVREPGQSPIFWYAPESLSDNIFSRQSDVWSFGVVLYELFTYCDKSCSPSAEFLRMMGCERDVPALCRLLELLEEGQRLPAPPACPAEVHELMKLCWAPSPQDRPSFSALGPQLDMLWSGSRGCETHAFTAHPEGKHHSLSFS

[5] = biological target: T5, SAPK4(h) (Homo sapiens, UniProt O15264)
T5 construct: purchased Millipore KinaseProfiler
T5 sequence (O15264 1-365): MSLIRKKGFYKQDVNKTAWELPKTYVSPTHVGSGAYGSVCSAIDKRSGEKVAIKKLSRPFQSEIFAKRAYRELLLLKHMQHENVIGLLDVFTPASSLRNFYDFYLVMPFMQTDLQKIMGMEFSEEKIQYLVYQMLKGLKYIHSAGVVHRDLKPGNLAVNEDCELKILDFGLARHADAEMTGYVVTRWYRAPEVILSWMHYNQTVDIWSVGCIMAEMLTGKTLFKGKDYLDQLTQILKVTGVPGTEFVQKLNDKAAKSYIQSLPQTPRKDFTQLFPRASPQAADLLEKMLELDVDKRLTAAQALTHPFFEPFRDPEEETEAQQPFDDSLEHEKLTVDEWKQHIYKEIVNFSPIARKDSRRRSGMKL

SMILES	inhibition at 0.5 µM [1]	inhibition at 10 µM [1]	inhibition at 0.5 µM [2]	inhibition at 10 µM [2]	inhibition at 0.5 µM [3]	inhibition at 10 µM [3]	inhibition at 0.5 µM [4]	inhibition at 10 µM [4]	inhibition at 0.5 µM [5]	inhibition at 10 µM [5]	inhibition at 0.5 µM ([1]; 0.5 µM, read-out: % Inhibition)	inhibition at 10 µM ([1]; 10 µM, read-out: % Inhibition)	inhibition at 0.5 µM ([2]; 0.5 µM, read-out: % Inhibition)	inhibition at 10 µM ([2]; 10 µM, read-out: % Inhibition)	inhibition at 0.5 µM ([3]; 0.5 µM, read-out: % Inhibition)	inhibition at 10 µM ([3]; 10 µM, read-out: % Inhibition)	inhibition at 0.5 µM ([4]; 0.5 µM, read-out: % Inhibition)	inhibition at 10 µM ([4]; 10 µM, read-out: % Inhibition)	inhibition at 0.5 µM ([5]; 0.5 µM, read-out: % Inhibition)	inhibition at 10 µM ([5]; 10 µM, read-out: % Inhibition)
Cn1ncc(Cl)c1-c1cc(C(=O)N[C@H](CN)Cc2cccc(F)c2)sc1Cl [GSK2110183]	-2%	24%	-15%	-5%	-8%	-3%	6%	-3%	3%	64%										
Cn1ncc(Cl)c1-c1cc(C(=O)N[C@H](CN)Cc2ccc(F)c(F)c2)oc1Cl [GSK2141795]											-16%	-4%	-12%	0%	3%	15%	-6%	-14%	-9%	54%
